Results published in patent US6486164B2, “6-(4-arylalkylpiperazin-1-yl) benzodioxane and 6-(4-arylalkylpiperazin-1-yl) chromane derivatives: dopamine receptor subtype specific ligands” (Neurogen Corporation, priority 1998, dated 2002).
Structures can show the parent of a compound that is named as a salt. Where two headings read alike, the source gives them in different places.

Key:
D4 receptors from human = molecular target: T1, D4 receptors from human (Homo sapiens, UniProt P21917); experiment: D4 receptor binding assay (3H-YM 09151-2 displacement)
T1 construct: expressed in transfected cells; host or cells: COS cells
T1 sequence (P21917 1-419): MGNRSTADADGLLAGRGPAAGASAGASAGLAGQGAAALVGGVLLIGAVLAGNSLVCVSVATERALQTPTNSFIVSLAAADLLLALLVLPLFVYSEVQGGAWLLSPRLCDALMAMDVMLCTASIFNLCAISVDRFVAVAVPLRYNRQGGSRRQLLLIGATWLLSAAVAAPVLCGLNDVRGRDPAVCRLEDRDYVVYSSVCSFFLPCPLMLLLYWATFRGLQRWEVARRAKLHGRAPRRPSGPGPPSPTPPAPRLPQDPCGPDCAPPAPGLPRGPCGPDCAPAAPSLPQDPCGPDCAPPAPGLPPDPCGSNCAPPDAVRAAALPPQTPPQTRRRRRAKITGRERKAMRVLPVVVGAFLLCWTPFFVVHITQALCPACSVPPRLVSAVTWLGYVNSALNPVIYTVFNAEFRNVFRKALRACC
Protocol: (§1) Pellets of COS cells containing recombinantly produced D2, D3 or D4 receptors from human are used for the assays. The sample is homogenized in 100 volumes (w/vol) of 0.05 M Tris HCl buffer at 4° C. and pH 7.4. The sample is then centrifuged at 30,000×g and resuspended and rehomogenized. The sample is then centrifuged as described and the final tissue sample is frozen until use. The tissue is resuspended 1:20 (wt/vol) in 0.05 M Tris HCl buffer containing 100 mM NaCl.

D3 receptors from human = molecular target: T2, D3 receptors from human (Homo sapiens, UniProt P35462); experiment: D3 receptor binding assay (3H-YM 09151-2 displacement)
T2 construct: expressed in transfected cells; host or cells: COS cells
T2 sequence (P35462 whole entry): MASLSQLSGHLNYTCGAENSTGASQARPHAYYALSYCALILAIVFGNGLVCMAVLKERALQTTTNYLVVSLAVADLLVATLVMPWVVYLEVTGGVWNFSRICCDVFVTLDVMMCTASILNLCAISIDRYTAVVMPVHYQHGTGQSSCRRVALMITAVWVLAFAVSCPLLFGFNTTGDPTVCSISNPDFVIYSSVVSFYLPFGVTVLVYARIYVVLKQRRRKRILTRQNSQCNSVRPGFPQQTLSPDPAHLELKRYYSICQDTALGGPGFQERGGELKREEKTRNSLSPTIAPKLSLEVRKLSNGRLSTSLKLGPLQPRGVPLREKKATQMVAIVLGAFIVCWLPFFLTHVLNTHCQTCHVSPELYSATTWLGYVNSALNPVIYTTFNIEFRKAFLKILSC
Protocol: as §1

D2 receptors from human = molecular target: T3, D2 receptors from human (Homo sapiens, UniProt P14416); experiment: D2 receptor binding assay (3H-YM 09151-2 displacement)
T3 construct: expressed in transfected cells; host or cells: COS cells
T3 sequence (P14416 whole entry): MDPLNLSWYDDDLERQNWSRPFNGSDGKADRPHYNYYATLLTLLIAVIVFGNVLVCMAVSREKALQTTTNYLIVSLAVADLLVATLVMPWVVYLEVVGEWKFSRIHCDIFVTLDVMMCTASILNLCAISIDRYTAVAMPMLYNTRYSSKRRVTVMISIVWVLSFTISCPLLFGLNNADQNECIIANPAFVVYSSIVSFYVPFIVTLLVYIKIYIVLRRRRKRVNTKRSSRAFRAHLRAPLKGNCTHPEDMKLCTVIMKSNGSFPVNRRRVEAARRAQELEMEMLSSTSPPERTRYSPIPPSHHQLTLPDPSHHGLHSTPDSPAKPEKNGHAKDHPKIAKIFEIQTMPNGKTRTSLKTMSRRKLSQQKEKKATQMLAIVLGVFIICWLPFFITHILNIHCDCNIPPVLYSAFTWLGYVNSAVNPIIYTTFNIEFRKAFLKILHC
Protocol: as §1

[1] = recombinant human receptor in COS cells, 0.5 nM 3H-YM 09151-2, read-out: D4 Ki
[2] = recombinant human receptor in COS cells, 0.5 nM 3H-YM 09151-2, read-out: D3 Ki
[3] = recombinant human receptor in COS cells, 0.5 nM 3H-YM 09151-2, read-out: D2 Ki

Cl.c1ccc(CN2CCN(c3ccc4c(c3)OCCO4)CC2)cc1
melting point: 143 to 145 °C

Cc1ccc(CN2CCN(c3ccc4c(c3)OCCO4)CC2)cc1.O=C(O)C(=O)O
melting point: 200 to 201 °C

COc1ccc(CN2CCN(c3ccc4c(c3)OCCO4)CC2)cc1.O=C(O)C(=O)O
melting point: 193 to 195 °C

Clc1cccc(CN2CCN(c3ccc4c(c3)OCCO4)CC2)c1.O=C(O)C(=O)O
melting point: 213 to 215 °C

Clc1ccccc1CN1CCN(c2ccc3c(c2)OCCO3)CC1.O=C(O)C(=O)O
melting point: 175 °C

COc1ccccc1CN1CCN(c2ccc3c(c2)OCCO3)CC1.O=C(O)C(=O)O
melting point: 143 °C

1-(Chroman-6-yl)-4-(4-methylbenzyl)piperazine Oxalate [Compound 4]
Ki (D4 receptors from human; [1]): 0.035 µM | Ki (D3 receptors from human; [2]): 2.99 µM | Ki (D2 receptors from human; [3]): 2.31 µM

COc1cccc(CN2CCN(c3ccc4c(c3)OCCO4)CC2)c1 (as salt: oxalate) [Compound 2, 1-(1,4-benzodioxan-6-yl)-4-(3-methoxybenzyl)piperazine oxalate]
melting point: 213 to 215 °C

Clc1ccc(CN2CCN(c3ccc4c(c3)OCCO4)CC2)cc1 (as salt: oxalate) [Compound 3, 1-(1,4-benzodioxan-6-yl)-4-(4-chlorobenzyl)piperazine oxalate]
melting point: 213 to 215 °C

Fc1ccc(CN2CCN(c3ccc4c(c3)OCCO4)CC2)cc1 [Compound 1, 1-(1,4-Benzodioxan-6-yl)-4-(4-fluorobenzyl)piperazine Oxalate]
Ki (D4 receptors from human): 0.011 µM | Ki (D3 receptors from human): 3.66 µM | Ki (D2 receptors from human): > 4 µM

COc1cccc(CN2CCN(c3ccc4c(c3)OCCO4)CC2)c1 [Compound 2, 1-(1,4-benzodioxan-6-yl)-4-(3-methoxybenzyl)piperazine oxalate]
Ki (D4 receptors from human; [1]): 0.037 µM | Ki (D3 receptors from human; [2]): 2.57 µM | Ki (D2 receptors from human; [3]): 2.59 µM

Clc1ccc(CN2CCN(c3ccc4c(c3)OCCO4)CC2)cc1 [Compound 3, 1-(1,4-benzodioxan-6-yl)-4-(4-chlorobenzyl)piperazine oxalate]
Ki (D4 receptors from human): 0.025 µM | Ki (D3 receptors from human): 2.63 µM | Ki (D2 receptors from human): > 4 µM
